From patent US20030199671A1, “Binding molecules for Fc-region polypeptides” (priority 2001, published 2003)
Positions of bridges follow the written chain, without caps; N, C: chain ends. Residues, ends and D or L forms follow the SMILES beside them.

Assays:
IgG4 = IgG4 (Homo sapiens, UniProt P01861); type: binding; design: all human subtypes derived from myeloma patients; purchased Calbiochem 400126; host or cells: myeloma patients
Procedure, shortened: (§1)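 Read-out is A280 of unbound IgG (1.4 mg/ml extinction coefficient), with percent bound derived against non-filtered or negative controls. Targets were incubated with immobilized peptides in PBST or TBST for 1-1.5 h at room temperature. Hydrolyzed Sepharose and immobilized Protein A serve as negative and positive controls.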

human IgG [1] = experiment: Dynamic (mini-column) binding capacity
Method: These media were used to determine the effect of ligand density on human IgG binding capacity in both static (filterplate) and dynamic (mini-column) modes with commercial immobilized recombinant Protein A (Repligen, IPA400) at a single density as control.
The IgG solution was loaded onto the column at a flow rate of 0.2 ml/minute (170 cm/hr). […] At the end of the loading period, the column was washed with PBS until the absorbance at 280 nm of the column eluant returned to baseline. […] Neutralizing the pH of the eluted fractions was unnecessary since the total IgG eluted was determined by total protein absorbance at 280 nm.
To establish total media capacities, IgG was loaded onto the columns until the absorbances of the column load and flow through streams were identical (loading to full capacity). After washing the column to baseline, bound IgG was eluted and the total amount captured from this elution fraction determined. The total capacity of the media (mg IgG/ml media) as total IgG captured divided by the column bed volume was calculated.
Additionally, column capacities at 10% breakthrough were calculated from the online A280 measurements of column flowthrough streams. The A280 curves obtained for the column of interest and for an equivalent “blank” column containing hydrolyzed Sepharose FF 4 media were aligned. The difference in areas between these curves (for a retained and non-retained target) from the time of injection to the time at which the A280 value for the column of interest had risen to 10% of the maximum A280 absorbance (100%) obtained for the load solution at 100% IgG capture saturation (10% breakthrough) was graphically integrated. A standard curve was used to relate the integrated area to mg IgG bound and capacity calculated as total IgG bound divided by column bed volume.

IgG3 = IgG3 (Homo sapiens, UniProt P01860); type: binding; design: all human subtypes derived from myeloma patients; purchased Calbiochem 400124; host or cells: myeloma patients
Sequence of IgG3 (P01860 1-377 isoform P01860-1): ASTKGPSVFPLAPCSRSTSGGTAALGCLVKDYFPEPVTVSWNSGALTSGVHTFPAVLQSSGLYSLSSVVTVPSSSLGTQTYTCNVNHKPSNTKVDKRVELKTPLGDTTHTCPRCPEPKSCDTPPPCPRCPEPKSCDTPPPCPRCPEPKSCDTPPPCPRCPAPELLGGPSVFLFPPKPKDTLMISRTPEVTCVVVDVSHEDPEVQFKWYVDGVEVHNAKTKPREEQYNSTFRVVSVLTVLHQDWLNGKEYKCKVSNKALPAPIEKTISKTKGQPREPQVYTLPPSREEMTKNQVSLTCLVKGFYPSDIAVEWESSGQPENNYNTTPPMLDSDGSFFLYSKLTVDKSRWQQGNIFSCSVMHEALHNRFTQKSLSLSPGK
Procedure, shortened: (§2)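 Static binding, peptide resin + IgG, 1-1.5 h RT with shaking, PBST pH 7.2 or TBST pH 7.5. Flow-through read at A280 vs buffer blank; % bound = control minus unbound. Elution at pH 8.5 bicarbonate and/or pH 4.0 citrate, 30-60 min.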

mouse IgG = type: binding
Procedure, shortened: as §2

human IgG [2] = type: binding
Procedure, shortened: as §2

bovine IgG = type: binding
Procedure, shortened: as §2

human IgG2 = biological target: T1, human IgG2 (Homo sapiens, UniProt P01859); type: binding
T1 construct: all human subtypes derived from myeloma patients; purchased Calbiochem 400122; host or cells: myeloma patients
T1 sequence (P01859 1-326 isoform P01859-1): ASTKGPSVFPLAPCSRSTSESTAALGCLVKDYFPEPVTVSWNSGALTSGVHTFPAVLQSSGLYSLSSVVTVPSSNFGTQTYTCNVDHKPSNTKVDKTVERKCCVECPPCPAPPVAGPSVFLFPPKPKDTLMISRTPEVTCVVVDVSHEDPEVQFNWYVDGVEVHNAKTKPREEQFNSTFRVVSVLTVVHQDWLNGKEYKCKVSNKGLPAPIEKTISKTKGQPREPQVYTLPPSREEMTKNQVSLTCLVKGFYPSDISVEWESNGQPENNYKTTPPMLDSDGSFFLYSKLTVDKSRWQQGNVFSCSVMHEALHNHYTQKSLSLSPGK
Procedure, shortened: as §1

human IgG1 = biological target: T2, human IgG1 (Homo sapiens, UniProt P01857); type: binding
T2 construct: all human subtypes derived from myeloma patients; purchased Calbiochem 400120; host or cells: myeloma patients
T2 sequence (P01857 1-330 isoform P01857-1): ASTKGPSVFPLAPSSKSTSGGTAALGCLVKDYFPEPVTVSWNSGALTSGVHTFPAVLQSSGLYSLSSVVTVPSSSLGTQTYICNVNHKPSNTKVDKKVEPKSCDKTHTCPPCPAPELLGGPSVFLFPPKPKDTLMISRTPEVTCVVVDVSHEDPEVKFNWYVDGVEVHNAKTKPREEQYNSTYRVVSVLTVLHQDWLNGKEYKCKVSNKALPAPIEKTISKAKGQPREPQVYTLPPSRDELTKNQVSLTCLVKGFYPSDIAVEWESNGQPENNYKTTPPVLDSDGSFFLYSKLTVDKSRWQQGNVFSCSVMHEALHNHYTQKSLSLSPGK
Procedure, shortened: as §2

goat IgG = type: binding
Procedure, shortened: as §2

[3] = Table 9, immobilized peptide, 5.0 mg/ml resin load
[4] = Table 10, elution 0.1 M sodium bicarbonate buffer, pH 8.5
[5] = Table 10, elution 0.1 M sodium citrate buffer, pH 4.0

Sequence of IgG4 (P01861 1-327 isoform P01861-1): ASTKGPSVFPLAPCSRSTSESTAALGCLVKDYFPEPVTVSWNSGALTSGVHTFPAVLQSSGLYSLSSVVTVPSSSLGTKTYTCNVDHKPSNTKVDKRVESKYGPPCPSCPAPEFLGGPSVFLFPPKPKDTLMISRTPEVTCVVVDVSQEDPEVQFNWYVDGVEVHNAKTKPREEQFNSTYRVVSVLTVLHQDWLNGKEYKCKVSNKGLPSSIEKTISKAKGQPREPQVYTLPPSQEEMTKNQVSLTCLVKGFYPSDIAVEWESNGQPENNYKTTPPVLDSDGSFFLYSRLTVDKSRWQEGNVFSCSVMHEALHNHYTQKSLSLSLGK

% IgG Capture - Batch Binding, Human IgG4 (IgG4; [3]): 82% | Human IgG4 bdg % (% of Total Load) (IgG4; Table 10, batch binding): 82% | Human IgG4 elu pH 8.5 (% of Total Load) (IgG4; [4]): 66% | Human IgG4 elu pH 4.0 (% of Total Load) (IgG4; [5]): 54% | hIgG4 elution pH 2.5 (% of Total Load) (IgG4; Table 13): 42% | hIgG4 elution pH 3.0 (% of Total Load) (IgG4; Table 13): 43% | hIgG4 elution pH 3.5 (% of Total Load) (IgG4; Table 13): 30% | hIgG4 elution pH 4.5 (% of Total Load) (IgG4; Table 13): 10% | hIgG4 elution pH 5.5 (% of Total Load) (IgG4; Table 13): 4% | hIgG4 elution pH 9.0 (% of Total Load) (IgG4; Table 13): 53% | hIgG4 elution pH 9.5 (% of Total Load) (IgG4; Table 13): 59% | Capacity (mg IgG/mL resin) 10% Breakthrough (human IgG [1]; Ligand Density 0.19 μM/mL): 1.1 mg IgG/mL resin | Capacity (mg IgG/mL resin) Total Dynamic (human IgG [1]; Ligand Density 0.19 μM/mL): 1.2 mg IgG/mL resin | Capacity (mg IgG/mL resin) 10% Breakthrough (human IgG [1]; Ligand Density 0.86 μM/mL): 4.4 mg IgG/mL resin | Capacity (mg IgG/mL resin) Total Dynamic (human IgG [1]; Ligand Density 0.86 μM/mL): 8.4 mg IgG/mL resin | Capacity (mg IgG/mL resin) 10% Breakthrough (human IgG [1]; Ligand Density 1.63 μM/mL): 5.9 mg IgG/mL resin | Capacity (mg IgG/mL resin) Total Dynamic (human IgG [1]; Ligand Density 1.63 μM/mL): 10.3 mg IgG/mL resin | Capacity (mg IgG/mL resin) 10% Breakthrough (human IgG [1]; Ligand Density 3.20 μM/mL): 5.5 mg IgG/mL resin | Capacity (mg IgG/mL resin) Total Dynamic (human IgG [1]; Ligand Density 3.20 μM/mL): 16.4 mg IgG/mL resin | Dynamic Cap. (human IgG [1]; Table 18, total dynamic capacity, average ligand density 1.9 μmole/ml): 13 mg/mL | % IgG Capture - Batch Binding, Human IgG3 (IgG3; [3]): 0% | Human IgG3 bdg % (% of Total Load) (IgG3; Table 10, batch binding): 3% | Human IgG3 elu pH 8.5 (% of Total Load) (IgG3; [4]): 0% | Human IgG3 elu pH 4.0 (% of Total Load) (IgG3; [5]): 0% | hIgG3 elution pH 2.5 (% of Total Load) (IgG3; Table 13): 0% | hIgG3 elution pH 3.0 (% of Total Load) (IgG3; Table 13): 0% | hIgG3 elution pH 3.5 (% of Total Load) (IgG3; Table 13): 0% | hIgG3 elution pH 4.5 (% of Total Load) (IgG3; Table 13): 0% | hIgG3 elution pH 5.5 (% of Total Load) (IgG3; Table 13): 0% | hIgG3 elution pH 9.0 (% of Total Load) (IgG3; Table 13): 0% | hIgG3 elution pH 9.5 (% of Total Load) (IgG3; Table 13): 0% | % IgG Capture - Batch Binding, Mouse IgG (mouse IgG): 0% | % IgG Capture - Batch Binding, Human IgG (human IgG [2]): 84% | % IgG Capture - Batch Binding, Bovine IgG (bovine IgG): 0% | % IgG Capture - Batch Binding, Human IgG2 (human IgG2; [3]): 92% | Human IgG2 bdg % (% of Total Load) (human IgG2; Table 10, batch binding): 92% | Human IgG2 elu pH 8.5 (% of Total Load) (human IgG2; [4]): 54% | Human IgG2 elu pH 4.0 (% of Total Load) (human IgG2; [5]): 63% | hIgG2 elution pH 2.5 (% of Total Load) (human IgG2; Table 13): 71% | hIgG2 elution pH 3.0 (% of Total Load) (human IgG2; Table 13): 73% | hIgG2 elution pH 3.5 (% of Total Load) (human IgG2; Table 13): 63% | hIgG2 elution pH 4.5 (% of Total Load) (human IgG2; Table 13): 39% | hIgG2 elution pH 5.5 (% of Total Load) (human IgG2; Table 13): 1% | hIgG2 elution pH 9.0 (% of Total Load) (human IgG2; Table 13): 60% | hIgG2 elution pH 9.5 (% of Total Load) (human IgG2; Table 13): 67% | % IgG Capture - Batch Binding, Human IgG1 (human IgG1; [3]): 91% | Human IgG1 bdg % (% of Total Load) (human IgG1; Table 10, batch binding): 91% | Human IgG1 elu pH 8.5 (% of Total Load) (human IgG1; [4]): 63% | Human IgG1 elu pH 4.0 (% of Total Load) (human IgG1; [5]): 51% | hIgG1 elution pH 2.5 (% of Total Load) (human IgG1; Table 13): 65% | hIgG1 elution pH 3.0 (% of Total Load) (human IgG1; Table 13): 69% | hIgG1 elution pH 3.5 (% of Total Load) (human IgG1; Table 13): 69% | hIgG1 elution pH 4.5 (% of Total Load) (human IgG1; Table 13): 37% | hIgG1 elution pH 5.5 (% of Total Load) (human IgG1; Table 13): 1% | hIgG1 elution pH 9.0 (% of Total Load) (human IgG1; Table 13): 65% | hIgG1 elution pH 9.5 (% of Total Load) (human IgG1; Table 13): 68% | % IgG Capture - Batch Binding, Goat IgG (goat IgG): 0%
Structure (SMILES): CC[C@H](C)[C@@H]1NC(=O)[C@H](CC(C)C)NC(=O)[C@H](CCC(=O)O)NC(=O)CNC(=O)[C@H](Cc2c[nH]c3ccccc23)NC(=O)[C@H]([C@@H](C)O)NC(=O)[C@H]([C@@H](C)O)NC(=O)[C@H](Cc2ccc(O)cc2)NC(=O)[C@H](C(C)C)NC(=O)[C@@H](NC(=O)[C@H](CCSC)NC(=O)[C@H](Cc2c[nH]cn2)NC(=O)[C@H](CC(=O)O)NC(=O)[C@H](CC(=O)O)NC(=O)CNC(C)=O)CSSC[C@@H](C(=O)N[C@@H](CC(=O)O)C(=O)N[C@@H](CC(N)=O)C(=O)N[C@@H](Cc2c[nH]cn2)C(=O)N[C@@H](CCC(=O)O)C(=O)N2CCC[C@H]2C(=O)NCC(=O)N2CCC[C@H]2C(=O)N[C@@H](CCC(=O)O)C(=O)NCC(=O)NCC(=O)NCC(=O)N[C@@H](CCCCN)C(N)=O)NC(=O)[C@H](Cc2c[nH]c3ccccc23)NC1=O [DX249] (Ac-GDDHMCVYTTWGELIWCDNHEPGPEGGGK-NH2; disulfide 6-17)
